Data from the supplement of paper PMC10307832.

Columns and labels:
Assay in all cases: relative viability (nuclei count vs DMSO), 5 days (fraction); higher = more cells survive
[1] = compound: O=c1[nH]cc(F)c(=O)[nH]1 [5-Fluorouracil] + O=C(c1cc(Cc2n[nH]c(=O)c3ccccc23)ccc1F)N1CCN(C(=O)C2CC2)CC1 [Olaparib] (partner 8 µM)
In short: (§1)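 Five library-drug doses in √10 steps were combined with a fixed anchor-drug dose, or a single drug was given alone, by pin tool to lung cancer cell lines in 1536-well plates the day after seeding. Nuclei were stained and counted after 5 days. Relative viability is the nuclei count in treated wells over that in vehicle wells, taken as the median of duplicate plates.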

Sulindac + Trametinib = compound: CC1=C(CC(=O)O)c2cc(F)ccc2/C1=C\c1ccc([S+](C)[O-])cc1 [Sulindac] + CC(=O)Nc1cccc(-n2c(=O)n(C3CC3)c(=O)c3c(Nc4ccc(I)cc4F)n(C)c(=O)c(C)c32)c1 [Trametinib] (partner 0.02 µM)
In short: as §1

[2] = compound: O=c1[nH]cc(F)c(=O)[nH]1 [5-Fluorouracil] + N=C(N)NC(=N)NCCc1ccccc1 [Phenformin] (partner 250 µM)
In short: as §1

[3] = compound: O=c1[nH]cc(F)c(=O)[nH]1 [5-Fluorouracil] + CC1(C)CCC(c2ccc(Cl)cc2)=C(CN2CCN(c3ccc(C(=O)NS(=O)(=O)c4ccc(N[C@H](CCN5CCOCC5)CSc5ccccc5)c(S(=O)(=O)C(F)(F)F)c4)cc3)CC2)C1 [Navitoclax] (partner 0.5 µM)
In short: as §1

Cell Line	relative viability ([1]; first compound 0.02 µM)	relative viability ([1]; first compound 0.2 µM)	relative viability ([1]; first compound 0.6325 µM)	relative viability ([1]; first compound 2 µM)	relative viability (Sulindac + Trametinib; first compound 0.08 µM)	relative viability (Sulindac + Trametinib; first compound 0.253 µM)	relative viability (Sulindac + Trametinib; first compound 0.8 µM)	relative viability (Sulindac + Trametinib; first compound 2.53 µM)	relative viability (Sulindac + Trametinib; first compound 8 µM)	relative viability ([2]; first compound 0.02 µM)	relative viability ([2]; first compound 0.2 µM)	relative viability ([2]; first compound 0.6325 µM)	relative viability ([2]; first compound 2 µM)	relative viability ([3]; first compound 0.02 µM)	relative viability ([3]; first compound 0.2 µM)	relative viability ([3]; first compound 0.6325 µM)	relative viability ([3]; first compound 2 µM)
HOP-62	0.39	0.449	0.405	0.387	0.411	0.404	0.34	0.411	0.388	0.617	0.728	0.636	0.644	1.09	1.13	1.01	0.805
IA-LM	1	0.576	0.285	0.193	–	–	–	–	–	–	–	–	–	0.934	0.328	0.179	0.178
LC-2-ad	0.712	0.682	0.513	0.348	1.02	1.01	0.769	0.928	0.915	0.554	0.512	0.407	0.385	0.445	0.441	0.296	0.186
LCLC-97TM1	0.334	0.363	0.257	0.232	0.25	0.228	0.213	0.171	0.214	0.386	0.472	0.443	0.407	0.463	0.525	0.222	0.212
LCLC-103H	0.801	0.741	0.559	0.46	0.715	0.722	0.692	0.67	0.694	0.339	0.327	0.258	0.249	–	–	–	–
LK-2	0.589	0.814	0.529	0.428	0.854	0.746	0.705	0.617	0.944	0.597	0.582	0.57	0.381	1.06	0.939	0.652	0.603
LOU-NH91	0.92	0.853	0.74	0.314	0.771	0.826	0.687	0.785	0.836	0.731	0.858	0.589	0.298	0.732	0.637	0.455	0.283
LU99A	0.307	0.259	0.267	0.226	0.587	0.585	0.482	0.503	0.687	0.905	0.786	0.738	0.586	0.755	0.795	0.686	0.563
LXF-289	1.05	0.778	0.439	0.334	0.745	0.713	0.666	0.695	0.686	0.507	0.428	0.332	0.297	0.881	0.625	0.387	0.283
NCI-H23	0.317	0.373	0.256	0.229	0.39	0.403	0.333	0.364	0.356	0.686	0.897	0.438	0.298	0.807	0.845	0.653	0.338
NCI-H322M	0.838	0.764	0.618	0.531	0.474	0.506	0.48	0.5	0.603	0.857	0.743	0.724	0.541	1.29	1.07	0.853	0.693
NCI-H358	0.637	0.686	0.612	0.39	0.132	0.132	0.128	0.114	0.14	0.351	0.383	0.313	0.262	–	–	–	–
NCI-H441	0.514	0.438	0.292	0.269	0.423	0.579	0.331	0.492	0.494	0.927	0.979	0.553	0.387	1	0.502	0.507	0.409
NCI-H460	0.326	0.347	0.155	0.105	0.178	0.195	0.114	0.366	0.132	0.551	0.447	0.109	0.0647	1.5	0.461	0.165	0.0655
NCI-H522	0.547	0.618	0.647	0.621	0.628	0.75	0.547	0.747	0.734	0.584	0.637	0.682	0.678	–	–	–	–
NCI-H650	0.282	0.323	0.26	0.293	1.03	1.03	0.955	1	1.07	0.406	0.339	0.328	0.319	–	–	–	–
NCI-H661	0.776	0.8	0.808	0.693	0.635	0.608	0.487	0.669	0.654	0.274	–	0.284	0.287	–	–	–	–
NCI-H1299	1.06	1.02	0.917	0.655	–	–	–	–	–	–	–	–	–	1.07	1.1	1.06	0.895
NCI-H1563	–	–	–	–	–	–	–	–	–	0.713	0.611	0.641	0.646	–	–	–	–
NCI-H1623	–	–	–	–	–	–	–	–	–	0.45	0.582	0.364	0.335	–	–	–	–
NCI-H1648	0.632	0.796	0.638	0.332	0.379	0.414	–	0.473	0.422	–	–	–	–	–	–	–	–
NCI-H1703	0.337	0.614	0.365	0.255	–	–	–	–	–	–	–	–	–	1.32	1.08	0.817	0.61
NCI-H2342	0.419	0.529	0.442	0.39	0.829	0.81	0.721	0.826	0.825	0.619	0.72	0.559	0.635	–	–	–	–
SW 900	0.751	0.794	0.811	0.522	0.847	0.982	–	–	0.945	0.505	0.618	0.498	0.465	–	–	–	–
